Test results from patent US12109266B2, “Modulating gabarap to modulate immunogenic cell death” (Dana-Farber Cancer Institute, Inc., priority 2020, dated 2024).
Entries after “also recorded” stand apart in the source; their conditions may differ.

What was measured:
[1] = tested on: patient-derived MM cells (pdMM); assay: Phagocytosis assay of patient-derived MM cells by DCs; type: cell-based, human; settings: BTZ 5 and 10 nM; 4 h co-culture
Excerpt: Multiple myeloma patients BM aspirates and normal donor peripheral blood mononuclear cells (PBMCs) were obtained after written informed consent, in accordance with the declaration of Helsinki and under the approval by the Institutional Review Board of the Dana-Farber Cancer Institute. BMMCs and PBMCs were separated by Ficoll-Paque PLUS (GE Healthcare). Multiple myeloma cells from BMMCs were enriched by CD138-positive selection using magnetic microbeads (Miltenyi Biotec).
Mo-DCs were generated from CD14+ peripheral blood monocytes from healthy donors, positively selected using magnetic beads (Miltenyi Biotec), cultured for 6 days in mo-DC differentiation medium containing GM-CSF and IL-4 (130-094-812; Miltenyi Biotec). AMO1 and NCI-H929 cells lines, as well as patient MM cells, were stained with CellTrace™ Far Red (ThermoFisher Scientific), cultured with or without BTZ for 16 h, and then incubated in 48-well plates for 4 h at 1:1 ratio with CellTrace™ CFSE stained Mo-DCs. Cells were then collected, and phagocytosis analysis was performed by flow cytometry and confocal microscopy. Analagous phagocytosis experiments were performed using 5TGM1 murine multiple myeloma and JAWSII cell line that was used as source of immature murine DCs.
(§1) Flow cytometry-based assay: Collected cells were analyzed using the BD LRSFortessa X-20 flow cytometer. […]

T cells = assay: Analysis of T cell priming (co-culture of MM cells, DCs and T cells); type: cell-based, human
Method: DCs were generated from freshly isolated PBMCs as previously described. T cells were negatively selected from CD14− PBMCs using the Pan T cell Isolation Kit (Miltenyi Biotec) and frozen until immature DCs were generated. Either untreated or BTZ-treated MM cells were co-cultured with DCs and T cells for 5 days. T cells and DCs were also cultured in the absence of MM cells and in the presence of BTZ to assess the direct effects of drug on T cells and DCs. After 5 day co-culture, cells were treated with Dynabeads™ Human T-Activator CD3/CD28 (Cat. #11131D, ThermoFisher Scientific) 5 h before analysis, and with GolgiStop™ and GolgiPlug™ (Cat. #554724 and Cat. #555029, BD Biosciences) 3 h before analysis, following the manufacturer's instructions. Cells were then collected and T cell populations were analyzed by CyTOF analysis.
DCs were generated from healthy donors PBMCs as described above (“Generation of Mo-DCs” section). T cells were negatively selected from CD14-PBMCs from the same donors using the Pan T cell Isolation Kit (Miltenyi Biotec) and frozen until immature DCs were generated. Either untreated or BTZ-treated multiple myeloma cells were co-cultured with DCs and T cells for 5 days. T cells and DCs were similarly cultured in the absence of multiple myeloma cells and in the presence of BTZ. Before analysis, cells were treated with Dynabeads™ Human T-Activator CD3/CD28 (#11131D, ThermoFisher Scientific), and with GolgiStop™ and GolgiPlug™ (#554724 and #555029, BD Biosciences). T cell populations were analyzed using 10 color flow-cytometry with the following Abs: CD3-BV605 (#317322), CD8-FITC (#344704), CD4-PerCP/Cyanine5.5 (#317428), CD45RO-APC (#304210), CCR7-PE (#353204), CD69-PE/Cyanine7 (#310912), and IL-2-BV785 (#500348), IFNγ-BV421 (#502532) (BioLegend); and PD1-Super Bright 702 (#67-998-582). LIVE/DEAD™ Fixable Aqua dead Cell Stain(#L34966) (ThermoFisher Scientific) was also added to discriminate dead cells. Intracellular staining for IL-2 and IFNγ was performed using the Fixation/Permeabilization Solution Kit (BD Biosciences).
When T cell experiments were performed using patient multiple myeloma cells, the entire population of autologous BMMCs was cultured in presence and absence of BTZ and analyzed after 5 days. Data from experiments performed using multiple myeloma cell lines were analyzed with a bioinformatic semiautomated pipeline (Perez et al. (2020) Blood; 136(2):199-209). Briefly, flow cytometry files were entered in a custom R script which includes different bioinformatic algorithms and has been designed to reduce the impact of technical and instrumental differences, minimize the variability of manual analysis, and reveal full cellular diversity based on automatic semi-supervised clustering. Data from primary MM patients were manually analyzed by using Infinicyt 2.0 (Cytognos, Salamanca, Spain).

human DCs = assay: DCs maturation assay; type: cell-based
Method: Immature DCs were generated as described above (“Generation of Mo-DCs” section). DCs were cultured alone or with untreated or BTZ pretreated-AMO1 (5 nM) for 24 h. DCs alone were cultured i) without maturation stimuli; ii) with 50 ng/ml of TNFalpha (Millipore Sigma); or iii) with 5 nM of BTZ. After 24 h, cells were harvested and analyzed by flow cytometry using the following Abs: anti-CD83-APC (#551073), CD86-FITC (#555657) and 7-AAD from BD Biosciences and CD11c-BV650 (#563404, Biolegend). Dead cells were excluded by 7-AAD positivity, and CD83 and CD86 expression was evaluated on CD11c+ cells.

5TGM1 MM cells = assay: Phagocytosis assay of MM cells by JAWSII DCs; type: cell-based, murine
Method: Mo-DCs were generated from CD14+ peripheral blood monocytes were positively selected using magnetic beads (Miltenyi Biotec) and cultured for 6 days in mo-DC differentiation medium containing GM-CSF and IL-4 (130-094-812; Miltenyi Biotec) to generate Mo-DCs. AMO1, KMS11 and H929 cells lines, as well as patient MM cells, were stained with CellTrace™ Far Red (ThermoFisher Scientific), cultured with or without BTZ (for 16 h), and then incubated in 48-well plates for 4 h at 1:1 ratio with CellTrace™ CFSE stained Mo-DCs. Cells were then collected, and phagocytosis analysis was performed by flow cytometry and confocal microscopy. Analagous phagocytosis experiments was performed using 5TGM1 murine MM and immature murine DC line JAWSII.
Collected cells were analyzed using the BD LRSFortessa™ X-20 flow cytometer. Mo-DCs that engulfed MM cells were CFSE and FAR-RED double positive. Fold increase in percentage of double positive DCs after co-culture with BTZ treated vs untreated MM cells was compared. […]
as §1
Confocal microscopy-based assay: 5TGM1 cells (15000) were cytospun for 7 min at 300 rpm, fixed in 4% paraformaldehyde for 20 min at RT, and washed three times with 1% FBS in PBS. […] Slides were examined using Yokogawa Spinning Disk Confocal/TIRF System, and analyzed with ImageJ software.

For `CC(C)C[C@H](NC(=O)[C@H](Cc1ccccc1)NC(=O)c1cnccn1)B(O)O` [BTZ, bortezomib], the “phagocytosis of BTZ-treated pdMM cells by DCs” value [1] was “dose-dependent increase in phagocytosis of BTZ-treated pdMM cells by DCs”, the “T cell subsets (CD4+ EM, total CD8+, CD8+ EM)” value (T cells; BTZ-treated AMO1 STING^KO vs WT) was “no significant increase of CD4+EM; total CD8+; and CD8+EM cells” and the “T cell subsets (CD4+ EM, total CD8+, CD8+ EM, CD8+ TEMRA)” value (T cells; BTZ-treated AMO1 or H929 cells with DCs and T cells, 5 days) was “significant increase of CD4+ effector memory (EM); total CD8+; CD8+EM and CD8+ terminally differentiated EM (TEMRA) cells”. The “T cell subsets / T cell maturation” value (T cells; DCs and T cells with BTZ 5 nM in the absence of MM cells, 5 days) was “not observed by treating DCs and T cells with BTZ in the absence of multiple myeloma cells; also recorded: does not induce T cell maturation”, the “T cell phenotype / priming (CyTOF)” value (T cells; DCs primed by BTZ-treated AMO1 GABARAP^KO) was “led to T cell exhaustion; also recorded: GABARAP^KO blocks T cell priming by DCs after BTZ treatment” and the “CD4+ T cell phenotype (CyTOF)” value (T cells; DCs primed by BTZ-treated AMO1 WT) was “switched CD4+ T cells towards an effector memory function”. The “CD4+ and CD8+ T cell populations” value (T cells; autologous BMMCs from MM patients, BTZ 5 nM, 5 days) was “confirmed the phenotypic changes in both CD4+ and CD8+ T cell populations”, the “expression of CD83 and CD86 maturation markers on DCs” value (human DCs; 24 h co-culture with BTZ (5 nM) pretreated AMO1) was “higher expression of CD86/CD83 on cell surface; also recorded: increased expression of CD83 and CD86 maturation markers” and the “expression of CD83 and CD86 maturation markers on DCs” value (human DCs; DCs with BTZ alone (5 nM), no MM cells) was “not triggered by either untreated multiple myeloma cells or BTZ alone”. For the same compound, the “phagocytosis of BTZ-treated MM cells by DCs” value (5TGM1 MM cells; 5TGM1 Calr^KO cells) was “calreticulin is necessary for induction of ICD by BTZ; also recorded: abrogated in vitro when DCs were co-cultured with CRT^KOMM cells; also recorded: inhibited” and the “phagocytosis of BTZ-treated MM cells by DCs” value (5TGM1 MM cells; 5TGM1 WT, BTZ 16 h, then 4 h co-culture with mDCs) was “engulfed by monocyte-derived DCs after 4 h of co-culture”.
